Assay [1] has as its target T1, USP9X (Homo sapiens (Human), UniProt Q93008). The assay is described as follows: USP9X enzyme activity assay, ubiquitin-rhodamine110 substrate.
Description: The inhibition property of compound Compound 1A was evaluated in assays measuring the ability of USP9X to catalyze the hydrolysis of the amide bond between the C terminal carboxylate of ubiquitin and rhodamine110 of the fluorogenic substrate ubiquitin-rhodamine 110. To the wells of a 96 well reaction plate was added 12.5 μL USP9X solution (1.3 nM) in assay buffer (100 mM NaCl, 1 mM DTT, 0.1% bovine serum albumin, 0.05% Tween 20, 50 mM Tris, pH 7.5). 12.5 μL of Compound 1A in assay buffer (4×final concentration) was added to the wells containing the USP9X solution, and the solution was gently mixed by pipetting up and down several times. The plate was sealed and incubated at room temperature for 20 minutes.
Then 25 μL of the 1 μM substrate (ubiquitin-rhodaminel10) solution was added in assay buffer. The final substrate concentration was 0.5 μM. […] The slope for the rate of change of the fluorescence was determined and plotted vs the concentration of Compound 1A.
USP9X enzyme assays were set up in a 96 well plate to assess the abilities of Compound 3A and Compound 4A to inhibit the activity of USP9X, respectively. Ubiquitin-rhodamine110 was used as the substrate and ubiquitin aldehyde was included in the assay as a positive control.
Purified recombinant USPx9 (R&D Systems) in 50 mM Tris buffer pH 7.5, 1 mM DTT, 100 mM NaCl, 0.05% Tween 20 and 0/1% BSA is used at a concentration of 0.325 nM with 0.5 μM ubiquitin-rhodamine (R&D Systems).
For a further assay, the system named is Mcl-1. The assay is described as follows: Western blot of Mcl-1 in U937 cells. It counts as cell-based. As to the method:
After 24 hours treatment with Compound 7A, U937 cells were collected by centrifugation and whole cell lysates were prepared. These lysates were analyzed by Western blot to determine the level of Mcl-1. Western blot analysis was carried out as previously described (Wang et al., 2014 Journal of the American Society of Nephrology DOI: 10.1681/asn.2013060665). The band intensity for Mcl-1 in these samples were normalized to that of tubulin to correct for any inconsistencies in total protein in loading and processing the whole cell lysates.
To investigate the mechanism of action, Western blot analysis was carried out to test the induced degradation of USP9X substrate Mcl-1 by the compounds under the effects of protein synthesis inhibitor cycloheximide and/or proteasome inhibitor MG132. U937 cells were treated with 10 μM cycloheximide for one hour, with 10 μM MG132 for one hour, with the combination of 10 μM cycloheximide and 10 μM MG132 for one hour, and with vehicle (DMSO) for one hour, respectively, prior to the treatment with Compound 5A for 24 hrs. The U937 cells were harvested after treatment and whole cell lysates were prepared. These lysates were analyzed by Western blot to determine the abundance of Mcl-1 as well as that of tubulin as a normalization control. […] The band intensity of the Mcl-1 in cells treated with cycloheximide alone (Lane 2) was reduced relative to that for tubulin. […] Global blockade of protein synthesis by cycloheximide led to a significant decrease in the expression levels, especially for short lived Mcl-1. The retention of a reduced portion of Mcl-1 indicated the immunity of this portion to proteasomal degradation. […] In contrast, the band intensity of Mcl-1 relative to that of tubulin increased upon treatment of U937 cells with the proteasome inhibitor MG132 (Lane 4). […] Together, the results of this Example are consistent with the compounds acting on the proposed mechanism that intracellular inhibition of the deubiquitylase activity of USP9X blocks its ability to rescue USP9X substrates such as Mcl-1 from proteasomal degradation. In other aspects, by varying the concentration ratios of the compound and proteasome inhibitor for treating cells, it was possible to achieve controlled degradation of a USP9X substrate so the substrate could decline to a desirable level rather than degrade entirely.

Another assay addresses USP7 (Homo sapiens (Human), UniProt Q93009). The assay is described as follows: DUB selectivity panel using ubiquitin-AMC. Type of assay: biochemical. The text has this:
(§1) Compounds were screened for DUB inhibitory and apoptotic activity against other deubiquitylases in a DUB selectivity panel using ubiquitin-AMC (BPS Bioscience Inc.).

For another assay, the target named is USP25 (Homo sapiens (Human), UniProt Q9UHP3). Nature of the assay: DUB selectivity panel using ubiquitin-AMC. It counts as biochemical. The settings on record: 5 μM compound, 500 nM Ubiquitin-AMC.
Description: as §1

The target of the next assay is USP10 (Homo sapiens (Human), UniProt Q14694). Nature of the assay: DUB selectivity panel using ubiquitin-AMC. Type of assay: biochemical. The settings on record: 5 μM compound, 500 nM Ubiquitin-AMC.
Description: as §1

For the next assay, the target named is USP4 (Homo sapiens (Human), UniProt Q13107). The assay is described as follows: DUB selectivity panel using ubiquitin-AMC. The settings on record: 5 μM compound, 500 nM Ubiquitin-AMC. Type of assay: biochemical.
Description: as §1

Another assay concerns the target USP30 (Homo sapiens (Human), UniProt Q70CQ3). Nature of the assay: DUB selectivity panel using ubiquitin-AMC. It counts as biochemical. The settings on record: 5 μM compound, 500 nM Ubiquitin-AMC.
Description: as §1

The target in another assay is USP28 (Homo sapiens (Human), UniProt Q96RU2). The assay is described as follows: DUB selectivity panel using ubiquitin-AMC. Type of assay: biochemical.
Description: as §1

The next assay concerns the target CYLD (Homo sapiens (Human), UniProt Q9NQC7). Nature of the assay: DUB selectivity panel using ubiquitin-AMC. It counts as biochemical. The settings on record: 5 μM compound, 500 nM Ubiquitin-AMC.
Description: as §1

Another assay concerns the target USP13 (Homo sapiens (Human), UniProt Q92995). Nature of the assay: DUB selectivity panel using ubiquitin-AMC. To be noted: 5 μM compound, 500 nM Ubiquitin-AMC. Type of assay: biochemical.
Description: as §1

The target of the next assay is USP15 (Homo sapiens (Human), UniProt Q9Y4E8). The assay is described as follows: DUB selectivity panel using ubiquitin-AMC. Type of assay: biochemical. The settings on record: 5 μM compound, 500 nM Ubiquitin-AMC.
Description: as §1

The target of the next assay is UCH-L3 (Homo sapiens (Human), UniProt P15374). The assay is described as follows: DUB selectivity panel using ubiquitin-AMC. Type of assay: biochemical. The settings on record: 5 μM compound, 500 nM Ubiquitin-AMC.
Sequence of UCH-L3 (P15374 whole entry): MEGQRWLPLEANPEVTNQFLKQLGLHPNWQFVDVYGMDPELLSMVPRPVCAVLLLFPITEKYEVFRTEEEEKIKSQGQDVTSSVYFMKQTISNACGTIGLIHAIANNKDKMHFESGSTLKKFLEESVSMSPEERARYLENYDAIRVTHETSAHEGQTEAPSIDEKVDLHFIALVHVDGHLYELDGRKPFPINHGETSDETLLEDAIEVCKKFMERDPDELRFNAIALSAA
Description: as §1

For another assay, the target named is USP5 (Homo sapiens (Human), UniProt P45974). Nature of the assay: DUB selectivity panel using ubiquitin-AMC. It counts as biochemical. The settings on record: 5 μM compound, 500 nM Ubiquitin-AMC.
Description: as §1

A further assay has as its target USP2 (Homo sapiens (Human), UniProt O75604). The assay is described as follows: DUB selectivity panel using ubiquitin-AMC. Type of assay: biochemical.
Description: as §1

In assay [2] the target is T1, USP9X. The assay is described as follows: Steady-state enzyme inhibition kinetics of USP9X. It counts as biochemical. An excerpt:
The data were fit to a general model for enzyme inhibition (FIG. 1E) so the values of the parameters determined from the assays specified the mode of inhibition. For example, in the case of α=1 and β=0, it corresponded to purely non-competitive inhibition. For α=infinity and p=1, it corresponded to purely competitive inhibition. The values of all the parameters, KS, KI, kcat, α, and β could be determined from the steady state measurements. The enzyme reactions were set up as described in the Inhibiting the catalytic activity of USP9X section. The concentration of the substrate ubqiutin-rhodamine110 was varied. The initial rates of the reactions were determined at several concentrations of the inhibitor Compound 2A. In order to determine the values of the parameters KS and kcat, the reaction rates in the absence of the inhibitor Compound 2A, the initial reaction rate data were fit to the standard Michaelis-Menten equation v=Vmax [S]/(Km+[S]). The values of α and β could then be determined by fitting the initial rate data of the enzyme reaction at various concentrations of Compound 2A to a modified version of the Michaelis-Menten equation, designating both Vmax and KS apparent to distinguish the apparent values of the parameters determined from these plots to the true values for these parameters determined from the steady state kinetics in the absence of Compound 2A. The values of α and β could be determined from the variation of the slopes and intercepts of the series of double reciprocal plots of 1/v versus 1/[S] for each concentration of Compound 2A. […] The two values determined for KI were from the two different plots.
The two values for KI were determined by two different methods for determining this parameter from the kinetic data: 1 represented a value determined from the slope of the 1/A intercept vs 1/[I] plot; 2 represented a value determined from the y intercept of the 1/A slope vs 1/[I] plot. […] Only the values of the parameters varied for the compounds.

Where [3] appears, read: read-out: IC50 for the inhibition of USP9X activity, ubiquitin-rhodamine110 substrate.
Setting [4] is: read-out: USP9X IC50 nM, Table 2.
Setting [5] is: 5 μM compound, 500 nM Ubiquitin-AMC.
Where [6] appears, read: from the slope of the 1/Δ intercept vs 1/[I] plot, read-out: KI, nM (1).
Setting [7] is: from the y intercept of the 1/Δ slope vs 1/[I] plot, read-out: KI, nM (2).

Read-outs that look alike come from different tables or passages of the source.

T1 sequence (Q93008 whole entry): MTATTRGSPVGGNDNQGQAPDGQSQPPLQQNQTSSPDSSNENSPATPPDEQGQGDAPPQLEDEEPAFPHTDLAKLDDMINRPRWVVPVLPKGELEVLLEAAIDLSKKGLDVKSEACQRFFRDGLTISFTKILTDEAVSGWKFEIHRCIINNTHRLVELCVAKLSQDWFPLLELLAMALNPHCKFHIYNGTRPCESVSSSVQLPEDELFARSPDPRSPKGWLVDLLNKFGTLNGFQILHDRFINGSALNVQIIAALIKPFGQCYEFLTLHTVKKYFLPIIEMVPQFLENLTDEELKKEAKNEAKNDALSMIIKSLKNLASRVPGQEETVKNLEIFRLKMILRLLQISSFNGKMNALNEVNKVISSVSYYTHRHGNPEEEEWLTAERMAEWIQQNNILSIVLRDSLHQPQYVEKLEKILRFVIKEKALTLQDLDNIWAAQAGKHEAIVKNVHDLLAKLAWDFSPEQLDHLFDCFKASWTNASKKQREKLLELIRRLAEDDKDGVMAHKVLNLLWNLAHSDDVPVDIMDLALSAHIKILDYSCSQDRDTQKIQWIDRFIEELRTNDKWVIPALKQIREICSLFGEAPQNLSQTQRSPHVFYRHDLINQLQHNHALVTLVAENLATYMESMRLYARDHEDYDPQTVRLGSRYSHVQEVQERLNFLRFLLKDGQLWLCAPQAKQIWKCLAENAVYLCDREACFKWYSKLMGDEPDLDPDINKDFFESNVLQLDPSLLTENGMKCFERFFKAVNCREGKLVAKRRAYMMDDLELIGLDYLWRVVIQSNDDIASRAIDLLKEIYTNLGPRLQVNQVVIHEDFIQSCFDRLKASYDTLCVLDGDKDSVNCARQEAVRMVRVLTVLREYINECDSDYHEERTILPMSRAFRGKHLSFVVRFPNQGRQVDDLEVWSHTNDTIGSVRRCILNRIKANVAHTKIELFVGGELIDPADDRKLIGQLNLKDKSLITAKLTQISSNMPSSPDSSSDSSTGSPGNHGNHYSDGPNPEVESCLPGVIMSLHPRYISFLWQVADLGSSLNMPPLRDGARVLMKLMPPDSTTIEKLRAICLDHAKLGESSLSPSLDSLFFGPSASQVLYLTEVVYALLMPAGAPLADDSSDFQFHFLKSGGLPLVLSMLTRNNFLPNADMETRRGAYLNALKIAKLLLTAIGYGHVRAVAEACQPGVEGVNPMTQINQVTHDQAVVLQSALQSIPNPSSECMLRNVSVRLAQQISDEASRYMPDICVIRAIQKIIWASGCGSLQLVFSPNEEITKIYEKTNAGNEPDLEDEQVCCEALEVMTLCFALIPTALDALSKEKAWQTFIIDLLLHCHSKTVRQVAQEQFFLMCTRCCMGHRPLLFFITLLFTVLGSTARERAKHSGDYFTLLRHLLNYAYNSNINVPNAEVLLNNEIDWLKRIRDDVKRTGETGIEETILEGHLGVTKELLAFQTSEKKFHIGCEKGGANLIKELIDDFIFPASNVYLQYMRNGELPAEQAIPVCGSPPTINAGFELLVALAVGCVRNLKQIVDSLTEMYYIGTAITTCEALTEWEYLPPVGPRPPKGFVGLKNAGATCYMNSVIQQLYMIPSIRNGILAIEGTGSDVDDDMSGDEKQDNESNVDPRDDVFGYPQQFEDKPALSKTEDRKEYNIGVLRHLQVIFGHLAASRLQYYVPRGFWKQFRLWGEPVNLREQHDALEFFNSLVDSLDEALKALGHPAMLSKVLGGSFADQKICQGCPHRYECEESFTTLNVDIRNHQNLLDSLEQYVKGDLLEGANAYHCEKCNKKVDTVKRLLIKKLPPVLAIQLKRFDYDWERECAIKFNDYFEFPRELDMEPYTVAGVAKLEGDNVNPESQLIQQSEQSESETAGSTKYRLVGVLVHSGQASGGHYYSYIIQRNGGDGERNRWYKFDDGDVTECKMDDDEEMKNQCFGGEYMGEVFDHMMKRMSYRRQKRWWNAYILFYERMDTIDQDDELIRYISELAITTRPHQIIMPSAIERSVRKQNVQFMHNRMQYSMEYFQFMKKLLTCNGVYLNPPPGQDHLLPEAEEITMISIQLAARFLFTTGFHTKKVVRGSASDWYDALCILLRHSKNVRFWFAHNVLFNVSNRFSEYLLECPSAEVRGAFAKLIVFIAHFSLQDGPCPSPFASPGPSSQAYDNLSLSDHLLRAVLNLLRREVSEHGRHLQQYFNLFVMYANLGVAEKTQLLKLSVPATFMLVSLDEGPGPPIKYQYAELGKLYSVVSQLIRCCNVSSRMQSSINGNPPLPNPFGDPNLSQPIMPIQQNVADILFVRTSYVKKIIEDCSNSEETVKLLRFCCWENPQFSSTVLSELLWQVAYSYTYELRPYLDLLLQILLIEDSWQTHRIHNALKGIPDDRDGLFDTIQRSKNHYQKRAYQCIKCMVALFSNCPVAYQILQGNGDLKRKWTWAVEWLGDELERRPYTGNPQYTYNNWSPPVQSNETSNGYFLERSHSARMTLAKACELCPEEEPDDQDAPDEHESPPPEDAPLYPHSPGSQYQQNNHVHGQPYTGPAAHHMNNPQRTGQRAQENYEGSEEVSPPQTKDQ
Sequence of USP2 (O75604 whole entry): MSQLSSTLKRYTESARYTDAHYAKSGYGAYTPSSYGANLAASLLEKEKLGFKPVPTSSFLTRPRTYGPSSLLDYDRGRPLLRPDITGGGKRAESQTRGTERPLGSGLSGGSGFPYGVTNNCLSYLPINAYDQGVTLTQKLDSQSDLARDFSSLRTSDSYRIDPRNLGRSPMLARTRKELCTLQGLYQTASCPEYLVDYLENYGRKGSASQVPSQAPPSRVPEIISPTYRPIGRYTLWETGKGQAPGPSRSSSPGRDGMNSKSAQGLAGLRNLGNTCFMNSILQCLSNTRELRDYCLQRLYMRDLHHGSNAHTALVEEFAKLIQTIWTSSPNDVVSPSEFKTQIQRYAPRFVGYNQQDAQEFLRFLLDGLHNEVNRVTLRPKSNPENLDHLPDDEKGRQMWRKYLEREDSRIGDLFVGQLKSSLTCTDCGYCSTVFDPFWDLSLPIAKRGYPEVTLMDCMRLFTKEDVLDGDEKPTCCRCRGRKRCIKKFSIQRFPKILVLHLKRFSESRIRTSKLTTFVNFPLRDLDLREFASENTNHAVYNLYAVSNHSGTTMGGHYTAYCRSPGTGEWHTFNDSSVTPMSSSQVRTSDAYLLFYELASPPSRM
Sequence of USP7 (Q93009 whole entry): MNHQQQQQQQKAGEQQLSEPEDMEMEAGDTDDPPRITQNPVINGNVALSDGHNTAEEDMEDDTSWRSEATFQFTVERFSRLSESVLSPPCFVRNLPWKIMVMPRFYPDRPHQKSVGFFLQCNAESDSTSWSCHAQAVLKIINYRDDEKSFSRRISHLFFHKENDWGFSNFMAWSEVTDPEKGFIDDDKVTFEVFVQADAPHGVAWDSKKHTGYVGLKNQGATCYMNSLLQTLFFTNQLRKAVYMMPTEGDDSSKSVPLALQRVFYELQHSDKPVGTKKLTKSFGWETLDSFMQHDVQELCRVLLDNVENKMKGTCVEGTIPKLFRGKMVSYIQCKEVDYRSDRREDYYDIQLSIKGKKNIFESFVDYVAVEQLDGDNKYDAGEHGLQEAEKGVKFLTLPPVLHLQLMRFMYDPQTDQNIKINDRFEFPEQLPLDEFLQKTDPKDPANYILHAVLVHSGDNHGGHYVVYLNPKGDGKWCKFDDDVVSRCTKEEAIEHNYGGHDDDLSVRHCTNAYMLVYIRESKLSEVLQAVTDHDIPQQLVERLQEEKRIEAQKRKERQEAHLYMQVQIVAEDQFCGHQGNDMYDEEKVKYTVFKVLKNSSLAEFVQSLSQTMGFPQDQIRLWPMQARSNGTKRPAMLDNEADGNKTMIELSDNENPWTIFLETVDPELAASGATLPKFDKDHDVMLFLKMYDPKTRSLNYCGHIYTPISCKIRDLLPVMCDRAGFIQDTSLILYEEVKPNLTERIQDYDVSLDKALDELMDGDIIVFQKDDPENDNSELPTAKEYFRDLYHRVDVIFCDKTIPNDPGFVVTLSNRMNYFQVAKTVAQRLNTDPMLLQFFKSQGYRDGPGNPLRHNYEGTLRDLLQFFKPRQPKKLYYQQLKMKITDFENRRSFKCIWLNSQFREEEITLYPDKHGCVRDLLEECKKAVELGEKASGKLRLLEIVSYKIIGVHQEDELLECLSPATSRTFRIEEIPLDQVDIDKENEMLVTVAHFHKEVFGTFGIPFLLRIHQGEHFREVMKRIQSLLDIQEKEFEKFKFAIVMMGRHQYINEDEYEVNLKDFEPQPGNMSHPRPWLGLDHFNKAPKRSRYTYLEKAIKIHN
Sequence of USP30 (Q70CQ3 whole entry): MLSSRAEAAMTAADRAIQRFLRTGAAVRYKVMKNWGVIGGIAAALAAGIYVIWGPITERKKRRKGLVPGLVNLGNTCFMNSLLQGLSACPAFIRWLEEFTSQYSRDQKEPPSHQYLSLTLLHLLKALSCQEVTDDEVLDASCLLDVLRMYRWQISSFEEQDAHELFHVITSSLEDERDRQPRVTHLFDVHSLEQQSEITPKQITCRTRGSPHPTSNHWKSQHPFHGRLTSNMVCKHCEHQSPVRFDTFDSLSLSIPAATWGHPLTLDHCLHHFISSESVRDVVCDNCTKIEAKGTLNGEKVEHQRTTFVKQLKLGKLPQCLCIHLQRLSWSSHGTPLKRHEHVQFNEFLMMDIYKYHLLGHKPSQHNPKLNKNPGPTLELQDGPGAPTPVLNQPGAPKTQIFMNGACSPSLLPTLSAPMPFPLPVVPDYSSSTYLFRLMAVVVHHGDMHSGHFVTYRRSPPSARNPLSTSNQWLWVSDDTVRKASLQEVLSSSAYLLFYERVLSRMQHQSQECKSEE

`CN1CCOc2ccc(cc2)C(=O)NCc2cccc(c2)C(=O)N[C@@H](CC(C)(C)C)C(=O)Nc2ccc(cc2)CCN(C)C(=O)CC(C)(C)CC1=O` [Compound 5A]: the IC50 (usually the concentration at which inhibition is half-maximal) is 30 nM at USP9X [1] (setting [3]); 30 nM at USP9X [1] (setting [4]); more than 50000 nM at USP7; 15000 nM against USP28; more than 50000 nM against USP2. Besides, the “ability to induce the degradation of Mcl-1 on addition of MG132” value with Mcl-1 (10 μM MG132 one hour before compound) is recorded as “blocked”. Moreover, the “reduction of Mcl-1” value in the assay with Mcl-1 (Compound 5A for 24 hrs (Lane 3)) is recorded as “about 50%”. The inhibition (as a rule, the relative decrease from the control value, in per cent) at 5 µM on USP7 (setting [5]) was 0%; on USP25, 0%; on USP10 it was less than 1%; on USP4, 0%; at USP30, less than 5%; against CYLD, 0%. For the same compound, the inhibition at 5 µM is 0% against USP13; less than 2% on USP15; 0% at UCH-L3; 0% against USP5; 0% against USP2 (setting [5]). Moreover, the “inhibition of USP7” value against USP7 (setting [5]) is listed as “no detectable effect”. The “inhibition of USP25” value on USP25 is “no detectable effect”. The “inhibition of USP4” value against USP4 is recorded as “no detectable effect”. Also, the “inhibition of CYLD” value against CYLD is reported as “no detectable effect”. Besides, the “inhibition of USP13” value on USP13 is given as “no detectable effect”. For the same compound, the “inhibition of UCH-L3” value at UCH-L3 was “no detectable effect”. Moreover, the “inhibition of USP5” value on USP5 was “no detectable effect”. For the same compound, the “inhibition of USP2” value at USP2 (setting [5]) is on record as “no detectable effect”. Also, the “KS” value on USP9X [2] was 1.2 µM. Besides, the “VMAX RFU/min” value at USP9X [2] stood at 335 RFU/min. For the same compound, the α at USP9X [2] worked out at 2.3. This compound gave a β at USP9X [2] of 0.78. Also, the values for the Ki on USP9X [2] (setting [6]) and at USP9X [2] (setting [7]) were 6.7 nM and 24 nM, respectively.

As for `CN1CCOc2ccc(cc2)C(=O)NCc2ccc(F)c(c2)C(=O)N[C@@H](CC(C)(C)C)C(=O)Nc2ccc(cc2)CCN(C)C(=O)CC(C)(C)CC1=O` [Compound 7A], at USP9X [1] (setting [3]), the IC50 came to 11 nM. In addition, the IC50 on USP9X [1] (setting [4]) came to 11 nM. The “decrease of normalized level of Mcl-1” value with Mcl-1 (24-hour treatment, concentration from 0 to 33 μm) turned out to be 50%. For the same compound, on USP9X [2], the “KS” value was 1.87 µM, the “VMAX RFU/min” value is listed as 589 RFU/min, the α amounted to 1.85 and the β was found to be 0.72. The Ki – broadly, the dissociation constant of the complex between target and ligand, obtained from inhibition or displacement – at USP9X [2] (setting [6]) turned out to be 9.4 nM. Besides, the Ki at USP9X [2] (setting [7]) came out at 10.3 nM.
